Reference: the NIST ThermoML archive (doi:10.1021/je9008156)
± gives the expanded uncertainty stated by the source.

Conditions: Crystal; visual observation

- Normal melting temperature: 193.00 ± 0.5 °C
SMILES: Nc1c(I)c(C(=O)NCC(O)CO)c(I)c(C(=O)NCC(O)CO)c1I (stereo unspecified)
